From patent US10342758B2, “Cationic lipid” (Kyowa Hakko Kirin Co., Ltd., priority 2012, dated 2019) come the findings set out here.

Each structure is given as a SMILES string.

The test system of data set [1] is apo-b gene mRNA. Put plainly: Expression ratio of apo-b mRNA after introduction of preparations into HepG2 cells. Type of data set: cell-based, human. As to conditions: nucleic acid 3 to 100 nM, 24 hours, composition with apo-b siRNA (FIG. 1). The source says: Each of the preparation: obtained in Example 49 (the compositions containing any of Compounds A-1, and A-3 to A-5, and the nucleic acid) and the preparations obtained in Comparative Example 1 (the compositions containing any of DLin-KC2-DMA and Compounds XI-1 to XI-3, and the nucleic acid) was introduced into cells of human liver cancer-derived cell line HepG2 (HB-8065) by the following method.
Each preparation diluted with Opti-MEM (GIBCO Co., Ltd., 31985) so that the final concentration of the nucleic acid was 3 to 100 nM was dispensed in a 96-well culture plate at 20 μL/well. […]
By using the obtained cDNA as a template and also using a universal probe library (Roche Applied Science, Inc., 04683633001) as the probe and ABI7900HT Fast (manufactured by ABI, Inc.), a PCR reaction was performed according to the method described in the protocol attached thereto, so that the apo-b gene and D-glyceraldehyde-3-phosphate dehydrogenase (hereinafter, represented by “gapdh”) gene, which is a constitutively expressed gene, were subjected to the PCR reaction. Then, the amount of the amplified mRNA was measured for each gene, and a quasi-quantitative value of the apo-b mRNA was calculated using the amount of the amplified gapdh mRNA as the internal control. […]

The nature of data set [2]: Average particle diameter of preparation (Zetasizer Nano ZS). As to conditions: preparation with f7 siRNA. Type of data set: physicochemical. As to the method: The average particle diameter of each preparation (composition) was measured using a particle diameter measurement device (Zetasizer Nano ZS, manufactured by Malvern, hereafter the same).
The average particle diameter of each preparation (composition) was measured using a particle diameter measurement device.
Each sample was weighed and suspended in an aqueous solution containing hydrochloric acid and ethanol so that the ratio of Compound A-1/PEG-DMPE Na (manufactured by NOF Corporation) was 57.3/5.52 mmol/L, and then, the resulting mixture was repeatedly subjected to stirring using a vortex stirring mixer and heating, whereby a uniform suspension was obtained. This suspension was passed through a 0.2-μm polycarbonate membrane filter and thereafter passed through a 0.05-μm polycarbonate membrane filter at room temperature, whereby a dispersion liquid of particles (liposome) of Compound A-1/PEG-DMPE Na was obtained. The average particle diameter of the obtained liposome was measured using a particle diameter measuring apparatus to confirm that the average particle diameter was within the range from 30 nm to 100 nm. In the obtained dispersion liquid of liposome, the f7 siRNA solution was mixed at a ratio of the dispersion liquid of liposome to the fl siRNA solution of 3:1, and then, distilled water that was three times the amount was added thereto and mixed therewith, whereby a dispersion liquid of Compound A-1/PEG-DMPE Na/f7 siRNA complex was prepared.
The average particle diameter of the preparation (composition) was measured using a particle diameter measurement device.

Assay in data set [3]: as above
Format: physicochemical. The note with it: preparation with apo-b siRNA; compound/PEG-DMPE Na/DSPC/cholesterol; Example 49 / Comparative Example 1.

Where [4] appears, read: liposome/siRNA complex encapsulated by lipid membrane, Examples 52, 53 / Comparative Example 3.
Where [5] appears, read: compound/PEG-DMPE Na/DSPC/cholesterol, Examples 50, 51 / Comparative Example 2.

On to `CCCCC/C=C\C/C=C\CCCCCCCCN(CCCCCCCC/C=C\C/C=C\CCCCC)C(=O)CCCCN(C)C` [Compound XI-2, 5-(Dimethylamino)-N,N-di((9Z,12Z)-octadeca-9,12-dienyl)pentanamide], for which, in data set [1], the “expression of the apo-b gene mRNA” value is “did not suppress the expression of the apo-b gene mRNA”.

As to `CCCCC/C=C\C/C=C\CCCCCCCCN(CCCCCCCC/C=C\C/C=C\CCCCC)C(=O)OCCCN(C)C` [Compound A-1, 3-(Dimethylamino) propyl di((9Z,12Z)-octadeca-9,12-dienyl)carbamate], the “Particle diameter of Preparation obtained” value (“Particle diameter” for short) in data set [2] (compound/PEG-DMPE Na/DSPC/cholesterol=7.030/0.755/2.038/4.892 mmol/L, Example 54) amounted to 113.0 nm; in data set [2] (setting [4]) it was 95.9 nm. As to `CCCCC/C=C\C/C=C\CCCCCCCCCCN(CCCCCCCCCC/C=C\C/C=C\CCCCC)C(=O)OCC1CCCN(C)C1` (stereo not drawn) [Compound A-20, (1-Methylpiperidin-3-yl)methyl di((11Z,14Z)-icosa-11,14-dienyl)carbamate], the “Particle diameter” value is given as 145.1 nm in data set [2] (setting [5]) and 95.7 nm in data set [2] (setting [4]). The corresponding values for `CCCCC/C=C\C/C=C\CCCCCCCCOCCN(CCCCCCCC/C=C\C/C=C\CCCCC)C(=O)OCCC1CCCN1C` (stereo not drawn) [Compound A-30] are 130.4 nm and 106.2 nm. The corresponding values for `CCCCC/C=C\C/C=C\CCCCCCCCN(CCCCCCCC/C=C\C/C=C\CCCCC)C(=O)OCC1CCCN1C` (stereo not drawn) [Compound A-21, (1-Methylpyrrolidin-2-yl)methyl di((9Z,12Z)-octadeca-9,12-dien-1-yl)carbamate] are 141.0 nm and 104.8 nm.

Take `CCCCCC/C=C\CCCCCCCCN(CCCCCCCC/C=C\CCCCCC)C(=O)OCCCN(C)C` [Compound A-3, 3-(Dimethylamino)propyl di(Z)-hexadec-9-enyl) carbamate]: the “Particle diameter” value in data set [3] worked out at 150.0 nm. As to `CCCCC/C=C\C/C=C\CCCCCCCCNCCCCCCCC/C=C\C/C=C\CCCCC` [Compound B-1, Di((9Z,12Z)-octadeca-9,12-dienyl)amine], in data set [2] (setting [5]), the “Particle diameter” value is listed as 160.6 nm. Take `CCCCCCCC/C=C\CCCCCCCCN(CCCCCCCC/C=C\CCCCCCCC)C(=O)OCC1CCCN(C)C1` (stereo not drawn) [Compound A-18, (1-Methylpiperidin-3-yl)methyl di((Z)-octadec-9-enyl)carbamate]: the figures for the “Particle diameter” value in data set [2] (setting [5]) and in data set [2] (setting [4]) were 138.4 nm and 112.0 nm, respectively.

On to `CCCCC/C=C\C/C=C\CCCCCCCCOCCN(CCCCCCCC/C=C\C/C=C\CCCCC)C(=O)OCCCN(C)C` [Compound A-12, 3-(Dimethylamino)propyl ((9Z,12Z)-octadeca-9,12-dienyl)(2-((9Z,12Z)-octadeca-9,12-dienyloxy)ethyl)carbamate], for which the “Particle diameter” value in data set [2] (setting [5]) amounted to 133.0 nm; in data set [2] (setting [4]), 111.5 nm. As to `CCCCC/C=C\C/C=C\CCCCCCCCN(CCCCCCCCCCCC)C(=O)OCCCN(C)C` [Compound A-9, 3-(Dimethylamino)propyl dodecyl((9Z,12Z)-octadeca-9,12-dienyl) carbamate], the “Particle diameter” value in data set [2] (setting [5]) is 116.4 nm. For the molecule `CCCCC/C=C\C/C=C\CCCCCCCCN(CCCCCCCC/C=C\C/C=C\CCCCC)C(=O)OCCCCN(C)C` [Compound A-13, 4-(Dimethylamino)butyl di((9Z,12Z)-octadeca-9,12-dienyl)carbamate], the “Particle diameter” value in data set [2] (setting [5]) is given as 135.0 nm; in data set [2] (setting [4]), 103.1 nm.

Consider `CCCCC/C=C\C/C=C\CCCCCCCCN(CCCCCCCC/C=C\C/C=C\CCCCC)C(=O)OCC1CCN(C)CC1` [Compound A-14, (1-Methylpiperidin-4-yl)methyl di((9Z,12Z)-octadeca-9,12-dien-1-yl)carbamate], for which the “Particle diameter” value in data set [2] (setting [5]) amounted to 134.4 nm; in data set [2] (setting [4]), 99.7 nm. The corresponding values for `CCCCC/C=C\C/C=C\CCCCCCCCN(CCCO)CCCCCCCC/C=C\C/C=C\CCCCC` [Compound C-1, 3-(Di((9Z,12Z)-octadeca-9,12-dienyl)amino)propan-1-ol] are 124.3 nm and 88.3 nm. On to `CCCCC/C=C\C/C=C\CCCCCCCCN(CCCCCCCC)C(=O)OCCCN(C)C` [Compound A-11, 3-(Dimethylamino)propyl ((9Z,12Z)-octadeca-9,12-dienyl)(octyl)carbamate], for which the “Particle diameter” value in data set [2] (setting [5]) is on record as 153.4 nm. As to `CCCCC/C=C\C/C=C\CCCCCCCCN(CCOCCCCCCCC/C=C\CCCCCCCC)C(=O)OCCC1CCCN1C` (stereo not drawn) [Compound A-34, 2-(1-Methylpyrrolidin-2-yl)ethyl (2-((Z)-octadec-9-enyloxy)ethyl)((9Z,12Z)-octadeca-9,12-dienyl)carbamate], the “Particle diameter” value in data set [2] (setting [5]) amounted to 140.2 nm; in data set [2] (setting [4]), 92.6 nm. `CCCCCCCC/C=C\CCCCCCCCN(CCCO)CCCCCCCC/C=C\CCCCCCCC` [Compound C-2, 3-(Di((Z)-octadec-9-enyl)amino)propan-1-ol]: the “Particle diameter” value in data set [2] (setting [5]) is on record as 125.4 nm; in data set [2] (setting [4]), 91.9 nm.
